Converted amounts (≈) assume the structure as drawn. Some results are limits rather than exact numbers.

We go through 39 compounds from ChEMBL document CHEMBL3714762, “Agents and methods for treating ischemic and other diseases” (2012).

A short description of data set [1]: Antiproliferative activity against human WERI cells assessed as inhibition of cell proliferation by measuring normalized ratio of propidium iodide uptake at 5 uM by propidium iodide uptake based fluoroskan microplate reader analysis. In kind it is functional.
Data set [2] in a line: Antiproliferative activity against human WERI cells assessed as inhibition of cell proliferation by measuring normalized ratio of propidium iodide uptake at 10 uM by propidium iodide uptake based fluoroskan microplate reader analysis. Format: functional.
Data set [3] can be described thus: Antiproliferative activity against human WERI cells assessed as inhibition of cell proliferation by propidium iodide uptake based fluoroskan microplate reader analysis. Format: functional.
Data set [4] relates to HeLa. As to the kind of experiment: Antiproliferative activity against human HeLa cells assessed as inhibition of cell proliferation at 10 uM incubated for 72 hrs by Cell-titer-Glo cell viability assay. Format: functional.
Data set [5] is described as follows: Antiproliferative activity against human MCF10A cells assessed as inhibition of cell proliferation at 10 uM incubated for 72 hrs by Cell-titer-Glo cell viability assay. Format: cell-based, MCF-10A.
A short description of data set [6]: Antiproliferative activity against mouse B16F10 cells assessed as inhibition of cell proliferation at 10 uM incubated for 72 hrs by Cell-titer-Glo cell viability assay. Format: functional. Particulars: B16-F10, 72 h.
Data set [7] relates to Y79. As to the kind of experiment: Antiproliferative activity against human Y79 cells assessed as inhibition of cell proliferation at 10 uM incubated for 72 hrs by Cell-titer-Glo cell viability assay. Format: functional. The settings on record: Y79, 72 h.
A short description of data set [8]: Solubility in aqueous solution. In kind it is physicochemical.
Data set [9] concerns MCF7. As to the kind of experiment: Antiproliferative activity against human MCF7 cells assessed as inhibition of cell proliferation at 10 uM incubated for 72 hrs by Cell-titer-Glo cell viability assay. Format: functional. The settings on record: MCF7, 72 h.
A short description of data set [10]: Antiproliferative activity against human DMS53 cells assessed as inhibition of cell proliferation at 10 uM incubated for 72 hrs by Cell-titer-Glo cell viability assay. In kind it is functional. Particulars: DMS-53, 72 h.
Data set [11] can be described thus: Antiproliferative activity against human WI38 cells assessed as inhibition of cell proliferation at 10 uM incubated for 72 hrs by Cell-titer-Glo cell viability assay. Format: cell-based, WI-38.
The nature of data set [12]: Stability in rat microsomes assessed half life. In kind it is ADME, Microsome.

As to `COc1ccc2c(c1)C(c1sc3ccccc3c1Cl)=NCC2`, the Ratio was found to be 0.36 in data set [1] and 0.07 in data set [2]. Besides, the IC50 in [3] is 3210 nM.

In the case of `Cc1ccc2c(c1)CCN=C2c1sc2ccccc2c1Cl`, the inhibition at 10 µM in data set [4], in data set [6] and in data set [7] was above 40% each time. Besides, the inhibition at 72 h, 10 µM in data set [5] was above 40%. The Ratio in data set [1] came out at 0.011; in data set [2], 0.003. For the same compound, in data set [3], the IC50 was found to be 1830 nM.

The compound `COc1cc2c(cc1OC)C(c1sc3ccccc3c1Cl)=NCC2` yielded a solubility in data set [8] of 100 µM (≈ 35.8 µg/mL). Also, the Ratio is 0.011 in [1] and 0 in data set [2]. The concentration for half-maximal inhibition (IC50) in data set [3] was 50 nM.

In the case of `COc1ccc2c(c1)CCCN2C(=O)c1sc2ccccc2c1Cl`, the Ratio in [1] turned out to be 0.695; in data set [2] it was 0.276. For the same compound, the 50% inhibitory concentration (IC50) in [3] amounted to 5660 nM.

For `COc1ccc(C)c(N(Cc2cccnc2)C(=O)c2sc3ccccc3c2Cl)c1`, the inhibition at 10 µM in [4] was above 40%. Further, the Ratio in data set [1] worked out at 0.08; in data set [2], 0.1. In [3], the IC50 was 2370 nM.

With `COc1cc2c(cc1OC)CN(C(=O)c1sc3ccccc3c1Cl)CC2`, the Ratio in data set [1] stood at 0.042; in data set [2] it was 0.024. For the same compound, the IC50 in data set [3] is 620 nM.

On to `COc1ccc2sc(C(=O)N3CCCc4cc(C)ccc43)c(Cl)c2c1`, for which the inhibition at 10 µM in data set [4], in data set [9], in [6] and in [7] was above 40% in each case. Moreover, the inhibition at 72 h, 10 µM in [5] is above 40%. In addition, the Ratio in data set [1] stood at 0.116; in data set [2], 0.051. The half-maximal inhibitory concentration (IC50) in data set [3] worked out at 2830 nM.

Regarding `COc1ccc2c(c1)CCN(C)C2c1sc2ccccc2c1Cl` (stereo unspecified), the Ratio in data set [1] is recorded as 0.344; in [2], 0.027. In addition, the IC50 in data set [3] was 4340 nM.

`COc1ccc2c(Cl)c(C(=O)N3CCCc4cc(C)ccc43)sc2c1`: the inhibition at 10 µM in data set [4], in [9], in data set [6], in data set [7] and in [10] was above 40% in each case. Moreover, the inhibition at 72 h, 10 µM in data set [5] and in [11] was above 40% in each case. Further, the values for the Ratio in data set [1] and in data set [2] were 0.294 and 0.11, respectively. The IC50 in [3] came out at 4030 nM.

In turn, `COc1ccc2c(Cl)c(C3NCCc4cc(OC)c(OC)cc43)sc2c1` (stereo unspecified) gave a half-life in [12] above 30 min. Moreover, in data set [8], the concentration in solution (solubility) was 100 µM (≈ 39 µg/mL).

Take `O=C(NCc1ccccc1N1CCCC1)c1sc2ccccc2c1Cl`: the inhibition at 10 µM in data set [4], in data set [9], in [6], in data set [7] and in data set [10] was above 40% throughout. Moreover, the inhibition at 72 h, 10 µM in data set [5] was above 40%. The Ratio in data set [1] was 0.195; in [2], 0.375. Further, the IC50 in [3] amounted to 1250 nM.

`Clc1cccc2c1CCN=C2c1sc2ccccc2c1Cl`: the Ratio in data set [1] is reported as 0.065; in data set [2], 0.1. Besides, the 50% inhibitory concentration (IC50) in data set [3] was determined as 2260 nM.

With `COc1cc2c(cc1OC)C(c1sc3cccc(OC)c3c1Cl)NCC2` (stereo unspecified), the Ratio in [1] was 0.008; in data set [2], 0.012. Also, the IC50 in [3] came out at 320 nM.

As to `Cc1ccc2c(c1)CCCN2C(=O)c1sc2ccc(F)cc2c1Cl`, the Ratio in [1] is listed as 0.321; in [2], 0.064. In data set [3], the IC50 is 4520 nM.

For `Cc1ccc(S(=O)(=O)Nc2sc3ccccc3c2Cl)cc1`, the Ratio in [1] worked out at 0.297; in data set [2] it was 0.121. The half-inhibitory concentration (IC50) in data set [3] was 3590 nM.

In the case of `Cc1ccc(N(Cc2cccc(C)n2)C(=O)c2sc3ccccc3c2Cl)c(C)c1`, the inhibition at 10 µM in data set [4], in data set [6] and in data set [7] was above 40% throughout. In addition, the Ratio in [1] is on record as 0; in data set [2], 0.1. For the same compound, in [3], the IC50 amounted to 840 nM.

As for `O=C(c1sc2ccccc2c1Cl)N1CCCc2cc(Cl)ccc21`, the values for the Ratio in [1] and in [2] were 0.267 and 0.049, respectively. Further, the concentration for half-maximal inhibition (IC50) in data set [3] turned out to be 3690 nM.

Turning to `Cc1c(Cc2c(F)cccc2Cl)c(=O)oc2cc(O)cc(O)c12`, the half-life in data set [12] is 5 min. Also, the Ratio in data set [1] is reported as 0.721; in [2] it was 0.102.

Take `Fc1ccc2c(c1)CCCN2Cc1sc2ccccc2c1Cl`: the Ratio amounted to 0.286 in data set [1] and 0.098 in [2]. Further, the IC50 in data set [3] came out at 4090 nM.

For the compound `Cc1ccc2c(c1)CCCN2C(=O)c1sc2cccc(F)c2c1Cl`, the figures for the Ratio in data set [1] and in [2] were 0.273 and 0.097, respectively. The IC50 in data set [3] was found to be 3290 nM.

As for `COc1cc(OC)c2c(C)c(Cc3cccc(Cl)c3)c(=O)oc2c1`, the Ratio is 0.088 in data set [1] and 0.19 in [2]. In data set [3], the concentration for half-maximal inhibition (IC50) was 770 nM.

As to `COc1ccc2c(c1)C(c1sc3cccc(C)c3c1Cl)=NCC2`, the inhibition at 10 µM in data set [4], in data set [9], in data set [7] and in [10] was above 40% each time. Besides, the inhibition at 72 h, 10 µM in data set [5] and in [11] was above 40% throughout. In addition, the Ratio in [1] was found to be 0.019; in data set [2] it was 0.047. In addition, in data set [3], the IC50 was 1310 nM.

As to `COc1ccc(C)c(N(Cc2ccncc2)C(=O)c2sc3ccccc3c2Cl)c1`, in data set [4], the inhibition at 10 µM is above 40%. For the same compound, the figures for the Ratio in [1] and in [2] were 0.573 and 0.228, respectively. Also, in data set [3], the IC50 stood at 5730 nM.

On to `Cc1ccc(N(C)C(=O)c2sc3ccccc3c2Cl)c(C)c1`, for which the figures for the Ratio in data set [1] and in [2] were 0.53 and 0.33, respectively. For the same compound, the half-maximal inhibitory concentration (IC50) in data set [3] turned out to be 4570 nM.

For `CN(Cc1ccccc1N1CCCC1)C(=O)c1sc2ccccc2c1Cl`, the Ratio worked out at 0.234 in [1] and 0.043 in [2]. The IC50 in data set [3] was 3440 nM.

In data set [8], `COc1cc2c(cc1OC)C(c1sc3cccc(C)c3c1Cl)NCC2` (stereo unspecified) returned a solubility of 100 µM (≈ 37.4 µg/mL).

In the case of `Cc1ccc2c(c1)CCCN2C(=O)c1sc2cccc(C)c2c1Cl`, the Ratio is 0.235 in [1] and 0.4 in data set [2]. Besides, in data set [3], the IC50 worked out at 2020 nM.

Take `COc1cc2c(cc1OC)C(c1sc3cccc(F)c3c1Cl)NCC2` (stereo unspecified): the Ratio in [1] came to 0.009; in [2], 0. In addition, the IC50 in data set [3] came out at 490 nM.

Consider `COc1cc2c(cc1OC)C(c1sc3ccccc3c1Cl)N(C)CC2` (stereo unspecified), for which the Ratio in data set [1] is 0.042; in data set [2], 0. In addition, the IC50 in [3] was 1770 nM.

Turning to `Cc1c(Cc2ccc(Cl)c(Cl)c2)c(=O)oc2cc(O)c(F)cc12`, the Ratio came to 0.314 in [1] and 0.002 in data set [2]. The IC50 in data set [3] worked out at 4030 nM.

With `COc1ccc2c(c1)CCNC2c1sc2ccccc2c1Cl` (stereo unspecified), the values for the Ratio in data set [1] and in data set [2] were 0.016 and 0.003, respectively. Besides, the concentration for half-maximal inhibition (IC50) in data set [3] was determined as 1000 nM.

Turning to `COc1cc2c(cc1OC)C(c1sc3ccccc3c1Cl)NCC2` (stereo unspecified), the Ratio in data set [1] is listed as 0.019; in data set [2] it was 0. Further, the half-inhibitory concentration (IC50) in data set [3] turned out to be 80 nM.

Consider `COc1cc2c(cc1OC)C(c1sc3cccc(C)c3c1Cl)=NCC2`, for which the inhibition at 10 µM in data set [4], in data set [9], in [6], in [7] and in [10] was above 40% in each case. In addition, the inhibition at 72 h, 10 µM in data set [5] and in data set [11] was above 40% in each case. Further, the concentration in solution in data set [8] (solubility) was 100 µM (≈ 37.2 µg/mL). Further, the Ratio in data set [1] is listed as 0.042; in data set [2], 0.028. In addition, the half-inhibitory concentration (IC50) in data set [3] turned out to be 340 nM.

As to `CC1c2ccsc2CCN1C(=O)c1sc2ccccc2c1Cl` (stereo unspecified), the Ratio in data set [1] turned out to be 0; in [2] it was 0.056. Moreover, the half-inhibitory concentration (IC50) in data set [3] turned out to be 1550 nM.

In turn, `COc1cc(OC)c2c(C)c(Cc3ccccc3)c(=O)[nH]c2c1` came in with a half-life in [12] above 30 min.

In the case of `O=C(c1sc2ccccc2c1Cl)N1CCCc2ccccc21`, the Ratio in data set [1] is listed as 0.545; in [2], 0.216. The IC50 in data set [3] is 9800 nM.

Take `CCCc1c(Cc2cccc(Cl)c2)c(=O)[nH]c2cc(OC)cc(OC)c12`: the Ratio in data set [1] came to 0.072; in [2] it was 0.037. For the same compound, in [3], the concentration for half-maximal inhibition (IC50) was 960 nM.

Take `COc1cccc2c1CCN=C2c1sc2cccc(C)c2c1Cl`: the inhibition at 10 µM in data set [4], in data set [9], in data set [6], in data set [7] and in data set [10] was above 40% in each case. In addition, the inhibition at 72 h, 10 µM in [5] and in data set [11] was above 40% in each case. In addition, the Ratio in data set [1] amounted to 0.042; in data set [2] it was 0.13. In addition, the IC50 in [3] is 360 nM.

Take `Cc1c(Cc2cccc(Cl)c2)c(=O)oc2cc(O)ccc12`: the figures for the Ratio in data set [1] and in data set [2] were 0.41 and 0.041, respectively. In addition, the half-maximal inhibitory concentration (IC50) in data set [3] was determined as 5590 nM.
